Measurements taken from ChEMBL document CHEMBL1201862, “PubChem BioAssay data set” (2004).
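All cell lines were grown in 96-well plates and treated with compound for 48 hours. The concentration for 50% growth inhibition is given as GI50.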 Calls of active or inactive are those of the source. Rule as the data show it: active = GI50 up to about 1.1 µM and inactive = higher.

How the values were obtained:
Assay in all cases: inhibition of tumour cell growth, NCI panel, 48 h
HOP-62 = test system: HOP-62
HCT-15 = test system: HCT-15
OVCAR-3 = test system: OVCAR-3
SK-MEL-28 = test system: SK-MEL-28
DU-145 = test system: DU-145
SN12C = test system: SN12C
ACHN = test system: ACHN
HL-60 = test system: HL-60
PC-3 = test system: PC-3
HCC 2998 = test system: HCC 2998
MDA-MB-435 = test system: MDA-MB-435
786-0 = test system: 786-0
OVCAR-8 = test system: OVCAR-8
MOLT-4 = test system: MOLT-4
MCF7 = test system: MCF7
Hs-578T = test system: Hs-578T
NCI-H226 = test system: NCI-H226
SK-MEL-2 = test system: SK-MEL-2
RPMI-8226 = test system: RPMI-8226
SW-620 = test system: SW-620

Row | SMILES | GI50 (HOP-62) | GI50 (HCT-15) | GI50 (OVCAR-3) | GI50 (SK-MEL-28) | GI50 (DU-145) | GI50 (SN12C) | GI50 (ACHN) | GI50 (HL-60) | GI50 (PC-3) | GI50 (HCC 2998) | GI50 (MDA-MB-435) | GI50 (786-0) | GI50 (OVCAR-8) | GI50 (MOLT-4) | GI50 (MCF7) | GI50 (Hs-578T) | GI50 (NCI-H226) | GI50 (SK-MEL-2) | GI50 (RPMI-8226) | GI50 (SW-620)
1 | Cc1cccc(NC(=O)c2cccc([N+](=O)[O-])c2O)c1C | 17.8 µM (inactive) | 31.4 µM | 18.1 µM (inactive) | 44.5 µM (inactive) | 37.3 µM (inactive) | 27.4 µM (inactive) | 28.6 µM (inactive) | 13.4 µM (inactive) | 20.2 µM (inactive) | 28.4 µM (inactive) | 29.2 µM (inactive) | 37.7 µM (inactive) | 33.7 µM (inactive) | 19.4 µM (inactive) | 27.4 µM (inactive) | 43.6 µM (inactive) | 22.1 µM (inactive) | 4.92 µM (inactive) | 3.14 µM (inactive) | 37.9 µM (inactive)
2 | Nc1ncnc2c1ncn2C1OC(CO)C(O)C1NS(=O)(=O)c1ccccc1 (stereo not given) | > 100 µM (inactive) | > 100 µM | > 100 µM (inactive) | > 100 µM (inactive) | > 100 µM (inactive) | > 100 µM (inactive) | > 100 µM (inactive) | > 100 µM (inactive) | > 100 µM (inactive) | > 100 µM (inactive) | > 100 µM (inactive) | > 100 µM (inactive) | > 100 µM (inactive) | > 100 µM (inactive) | > 100 µM (inactive) | > 100 µM (inactive) | > 100 µM (inactive) | > 100 µM (inactive) | > 100 µM (inactive) | > 100 µM (inactive)
3 | O=C(Nc1ccc(Cl)cc1)Oc1ccc(C(=S)Nc2ccc(Br)cc2)cc1 | 39.3 µM (inactive) | 11 µM | 16.1 µM (inactive) | 10.4 µM (inactive) | 25.8 µM (inactive) | – | 12.2 µM (inactive) | 1.61 µM (inactive) | 21.1 µM (inactive) | 15.4 µM (inactive) | 12.4 µM (inactive) | 16 µM (inactive) | 6.01 µM (inactive) | 4.44 µM (inactive) | 11.7 µM (inactive) | 57.1 µM (inactive) | – | 6.62 µM (inactive) | 23.5 µM (inactive) | 20.3 µM (inactive)
4 | COc1ccc(/C=C2\OC(=O)C(Cl)=C2c2ccc(OC)c(Cl)c2)cc1 | 15.2 µM (inactive) | 45 µM | 20 µM (inactive) | 35.7 µM (inactive) | 36.3 µM (inactive) | – | 30.4 µM (inactive) | 47.1 µM (inactive) | 30.8 µM (inactive) | 35.3 µM (inactive) | 23.8 µM (inactive) | 15.4 µM (inactive) | 21.1 µM (inactive) | 48.9 µM (inactive) | 19.9 µM (inactive) | 20.9 µM (inactive) | – | 49.8 µM (inactive) | 24.9 µM (inactive) | 36.6 µM (inactive)
5 | O=C1C(Br)=CC2(C=C1Br)CCNC1=C2C(=O)c2ncccc2C1=O | 0.542 µM (active) | 0.618 µM | 1.62 µM (inactive) | 0.443 µM (active) | 1.68 µM (inactive) | 1.21 µM (inactive) | 0.56 µM (active) | 1.06 µM (active) | 1.95 µM (inactive) | 1.98 µM (inactive) | 0.189 µM (active) | 1.47 µM (inactive) | 1.44 µM (inactive) | 1.83 µM (inactive) | 1.14 µM (inactive) | 1.27 µM (inactive) | 1.67 µM (inactive) | 0.116 µM (active) | 0.621 µM (active) | 1.1 µM (active)
6 | O=C1OC(OC/C(Br)=C(\Br)COC2OC(=O)C(Cl)=C2Cl)C(Cl)=C1Cl (stereo not given) | 14.5 µM (inactive) | 2.8 µM | 3.95 µM (inactive) | 7.82 µM (inactive) | 15.1 µM (inactive) | 5.64 µM (inactive) | 5.97 µM (inactive) | 0.324 µM (active) | 14.1 µM (inactive) | 17.9 µM (inactive) | 7.24 µM (inactive) | 2.51 µM (inactive) | 2.4 µM (inactive) | 0.807 µM (active) | 4.41 µM (inactive) | 5.57 µM (inactive) | 12.8 µM (inactive) | 19.5 µM (inactive) | 1.08 µM (active) | 2.39 µM (inactive)
7 | CC(C)CCC[C@@H](C)C1CCC2[C@@H]3CCC4CC(CCC=C(c5cc(Cl)c(OC(=O)c6ccccc6)c(C(=O)O)c5)c5cc(Cl)c(OC(=O)c6ccccc6)c(C(=O)O)c5)CC[C@]4(C)C3CC[C@@]21C (stereo not given in full) | > 100 µM (inactive) | 46.1 µM | 74.8 µM (inactive) | – | > 100 µM (inactive) | > 100 µM (inactive) | > 100 µM (inactive) | > 100 µM (inactive) | > 100 µM (inactive) | > 100 µM (inactive) | 72.8 µM (inactive) | 22.6 µM (inactive) | > 100 µM (inactive) | > 100 µM (inactive) | > 100 µM (inactive) | > 100 µM (inactive) | 85.7 µM (inactive) | > 100 µM (inactive) | > 100 µM (inactive) | > 100 µM (inactive)
8 | Cc1ccc2oc(=O)c3c(O)c4cccc(OC5OC(C)C6O[C@@H](c7ccccc7)OC6C5OC5OC(C)C(O)C(O)C5O)c4c4oc(=O)c1c2c34 (stereo not given in full) | 0.0452 µM (active) | 0.553 µM | 0.0857 µM (active) | 0.159 µM (active) | 0.174 µM (active) | 0.051 µM (active) | 0.027 µM (active) | 0.0536 µM (active) | 0.0955 µM (active) | 0.0442 µM (active) | 0.27 µM (active) | 0.0389 µM (active) | < 0.0215 µM (active) | – | 0.0324 µM (active) | 0.119 µM (active) | 0.0327 µM (active) | 0.196 µM (active) | 0.0366 µM (active) | 0.0486 µM (active)
9 | CCN1CCN(c2nc3ccccc3nc2C(=O)c2ccc(OC)cc2)CC1 | 16 µM (inactive) | 49.4 µM | 69.7 µM (inactive) | 36 µM (inactive) | > 100 µM (inactive) | – | 27.8 µM (inactive) | > 100 µM (inactive) | 78 µM (inactive) | > 100 µM (inactive) | 44.3 µM (inactive) | 19.4 µM (inactive) | 60.7 µM (inactive) | 28.8 µM (inactive) | 7.1 µM (inactive) | 38.6 µM (inactive) | – | 41 µM (inactive) | 7.19 µM (inactive) | 30.3 µM (inactive)
10 | CCOC(=O)N1CCC2(CC1)C[C@](Sc1ccccc1)(C(C)=O)[C@H](C)O2 | > 100 µM (inactive) | > 100 µM | > 100 µM (inactive) | > 100 µM (inactive) | > 100 µM (inactive) | – | > 100 µM (inactive) | > 100 µM (inactive) | > 100 µM (inactive) | > 100 µM (inactive) | > 100 µM (inactive) | > 100 µM (inactive) | > 100 µM (inactive) | > 100 µM (inactive) | > 100 µM (inactive) | > 100 µM (inactive) | > 100 µM (inactive) | > 100 µM (inactive) | > 100 µM (inactive) | > 100 µM (inactive)
11 | CCOC(=O)C1C(c2ccc(O)c(OC)c2)c2c(n[nH]c2O)CC1(C)O (stereo not given) | > 100 µM (inactive) | > 100 µM | > 100 µM (inactive) | > 100 µM (inactive) | > 100 µM (inactive) | > 100 µM (inactive) | > 100 µM (inactive) | > 100 µM (inactive) | > 100 µM (inactive) | > 100 µM (inactive) | > 100 µM (inactive) | > 100 µM (inactive) | > 100 µM (inactive) | > 100 µM (inactive) | > 100 µM (inactive) | > 100 µM (inactive) | – | > 100 µM (inactive) | > 100 µM (inactive) | > 100 µM (inactive)
